Patent US20260265246A1 (ICAHN SCHOOL OF MEDICINE AT MOUNT SINAI, priority 2021, published 2026)
Like-named read-outs stand apart in the source and are kept apart here.

Columns and labels:
5HT2A receptor [1] = target: T1, 5HT2A receptor (Homo sapiens, UniProt P28223); assay: cell-based; parameters: expressed in transfected cells; host or cells: HEK293T cells, transient co-transfection; details: for Emax: HEK-293T
5HT2A receptor [2] = target: T1, 5HT2A receptor; assay: biochemical; type: binding; parameters: expressed in transfected cells; crude membranes
5HT2A receptor [3] = target: T1, 5HT2A receptor; assay: cell-based; parameters: expressed in transfected cells; host or cells: HEK293T cells, transient co-transfection; details: for Emax: HEK-293T; remark: listed apart in the source
[4] = 5HT2A β-Arr EC50 (nM), BRET1 beta-arrestin2 recruitment, HEK293T
[5] = read-out: 5HT2A β-Arr Emax (%), BRET1 beta-arrestin2 recruitment, HEK293T, normalized to 5-HT
[6] = 5HT2A Ki (nM), secondary binding assay, Cheng-Prusoff
[7] = 5HTA Gq EC50 (nM), BRET2 Gαq dissociation, HEK293T
[8] = read-out: 5HTA Gq Emax (%), BRET2 Gαq dissociation, HEK293T, normalized to 5-HT
[9] = BRET1 beta-arrestin2 recruitment, HEK293T cells, read-out: 5HT2A β-Arr EC50
[10] = BRET1 beta-arrestin2 recruitment, HEK293T cells, normalized to 5-HT, read-out: 5HT2A β-Arr Emax (%)
[11] = secondary radioligand binding, Ki from IC50 by Cheng-Prusoff, read-out: 5HT2A Ki
[12] = BRET2 Gαq dissociation, HEK293T cells, read-out: 5HT2A Gq EC50
[13] = BRET2 Gαq dissociation, HEK293T cells, normalized to 5-HT, read-out: 5HT2A Gq Emax (%)
[14] = BRET1 beta-arrestin2 recruitment, HEK293T, normalized to 5-HT
[15] = BRET2 Gαq dissociation, HEK293T, normalized to 5-HT
[16] = BRET2 Gαq dissociation, HEK293T, read-out: 5HTA Gq EC50
[17] = BRET1 beta-arrestin2 recruitment, HEK293T, normalized to 5-HT, read-out: 5HT2A β-Arr Emax (%)
[18] = BRET2 Gαq dissociation, HEK293T, normalized to 5-HT, read-out: 5HTA Gq Emax (%)
[19] = 5HT2A β-Arr EC50 (nM), BRET1 beta-arrestin2 recruitment, HEK293T cells
[20] = 5HT2A Ki (nM), secondary radioligand binding, Ki from IC50 by Cheng-Prusoff
[21] = 5HT2A Gq EC50 (nM), BRET2 Gαq dissociation, HEK293T cells

T1 sequence (P28223 whole entry): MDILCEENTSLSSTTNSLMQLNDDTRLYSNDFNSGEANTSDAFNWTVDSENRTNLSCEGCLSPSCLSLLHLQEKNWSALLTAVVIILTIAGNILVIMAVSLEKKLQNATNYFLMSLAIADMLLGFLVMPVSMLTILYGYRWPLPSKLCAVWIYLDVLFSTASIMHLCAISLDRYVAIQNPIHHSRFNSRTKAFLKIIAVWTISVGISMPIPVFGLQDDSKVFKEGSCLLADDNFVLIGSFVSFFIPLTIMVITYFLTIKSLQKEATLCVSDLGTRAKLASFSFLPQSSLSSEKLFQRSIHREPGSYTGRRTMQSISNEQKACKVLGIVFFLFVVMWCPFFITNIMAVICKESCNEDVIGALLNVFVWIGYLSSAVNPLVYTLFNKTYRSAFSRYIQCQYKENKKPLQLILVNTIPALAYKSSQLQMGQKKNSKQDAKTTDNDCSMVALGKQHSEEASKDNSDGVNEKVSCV

SMILES	EC50 (5HT2A receptor [1]; [4])	Ki (5HT2A receptor [2]; [6])	EC50 (5HT2A receptor [3]; [7])	Emax (5HT2A receptor [1]; [10])	Emax (5HT2A receptor [3]; [13])	further results
[2H]C([2H])([2H])N1CCC=C(c2n[nH]c3c(Cl)cccc23)C1 [Example 150, 7-chloro-3-(1-(methyl-d3)-1,2,5,6-tetrahydropyridin-3-yl)-1H-indazole]	29.9 nM	842 nM	13.3 nM	–	–	Emax (5HT2A receptor [1]; [5]): 60.9%; Emax (5HT2A receptor [3]; [8]): 95.3%
Fc1ccc2c(C3=CCCNC3)c[nH]c2n1 [Example 133, 6-fluoro-3-(1,2,5,6-tetrahydropyridin-3-yl)-1H-pyrrolo[2,3-b]pyridine]	897 nM	292 nM	166 nM	–	–	Emax (5HT2A receptor [1]; [5]): 38.1%; Emax (5HT2A receptor [3]; [8]): 77.2%
Clc1ccc2[nH]nc(C3=CCCNC3)c2c1 [Example 84, 5-chloro-3-(1,2,5,6-tetrahydropyridin-3-yl)-1H-indazole]	–	–	–	97%	94.8%	EC50 (5HT2A receptor [1]; [9]): 52.4 nM; Ki (5HT2A receptor [2]; [11]): 25.3 nM; EC50 (5HT2A receptor [3]; [12]): 3.4 nM
Clc1cccc2c(C34CNCC3C4)n[nH]c12 (single isomer, unassigned) [Example 274, 3-(3-azabicyclo[3.1.0]hexan-1-yl)-7-chloro-1H-indazole]	733 nM	1580 nM	–	–	–	5HT2A β-Arr Emax (%) (5HT2A receptor [1]; [14]): 50.96%; 5HTA Gq Emax (%) (5HT2A receptor [3]; [15]): 117.2%; EC50 (5HT2A receptor [3]; [16]): 61.5 nM
Clc1cccc2c(C34CNCCC3C4)c[nH]c12 (stereo not shown) [Example 269, 3-(3-azabicyclo[4.1.0]heptan-1-yl)-7-chloro-1H-indole]	1380 nM	743 nM	257 nM	–	–	Emax (5HT2A receptor [1]; [5]): 30%; Emax (5HT2A receptor [3]; [8]): 88.8%
Clc1cccc2c(C34CNCC3C4)n[nH]c12 (single isomer, unassigned) [Example 273, 3-(3-azabicyclo[3.1.0]hexan-1-yl)-7-chloro-1H-indazole]	1300 nM	6300 nM	226 nM	–	–	5HT2A β-Arr Emax (%) (5HT2A receptor [1]; [14]): 20.73%; 5HTA Gq Emax (%) (5HT2A receptor [3]; [15]): 81.0%
FCCCN1CCC=C(c2n[nH]c3c(Cl)cccc23)C1 [Example 165, 7-chloro-3-(1-(3-fluoropropyl)-1,2,5,6-tetrahydropyridin-3-yl)-1H-indazole]	157 nM	342 nM	–	–	–	Emax (5HT2A receptor [1]; [17]): 28.7%; EC50 (5HT2A receptor [3]; [16]): 85.8 nM; Emax (5HT2A receptor [3]; [18]): 65%
Cc1ccnc2[nH]cc(C3=CCCN(C)C3)c12 [Example 13, 4-methyl-3-(1-methyl-1,2,5,6-tetrahydropyridin-3-yl)-1H-pyrrolo[2,3-b]pyridine]	–	–	–	38.9%	68.7%	EC50 (5HT2A receptor [1]; [9]): 765 nM; Ki (5HT2A receptor [2]; [11]): 63.5 nM; EC50 (5HT2A receptor [3]; [12]): 106 nM
CN1CCC=C(c2n[nH]c3ccc(Cl)cc23)C1 [Example 101, 5-chloro-3-(1-methyl-1,2,5,6-tetrahydropyridin-3-yl)-1H-indazole]	–	–	–	80.7%	74.2%	EC50 (5HT2A receptor [1]; [19]): 292 nM; Ki (5HT2A receptor [2]; [20]): 141 nM; EC50 (5HT2A receptor [3]; [12]): 16.2 nM
Clc1cc(Br)cc2c(C3CNC3)c[nH]c12 [Example 267, 3-(azetidin-3-yl)-5-bromo-7-chloro-1H-indole]	1050 nM	175 nM	949 nM	–	–	Emax (5HT2A receptor [1]; [17]): 20.8%; Emax (5HT2A receptor [3]; [18]): 64%
CCCN1CCC=C(c2c[nH]c3c(C)c(F)ccc23)C1 [Example 162, 6-fluoro-7-methyl-3-(1-propyl-1,2,5,6-tetrahydropyridin-3-yl)-1H-indole]	303 nM	1140 nM	260 nM	–	–	Emax (5HT2A receptor [1]; [17]): 23.4%; Emax (5HT2A receptor [3]; [18]): 80.6%
Clc1cccc2c(C3CNC3)c[nH]c12 [Example 255, 3-(azetidin-3-yl)-7-chloro-1H-indole]	302 nM	159 nM	68.2 nM	–	–	Emax (5HT2A receptor [1]; [5]): 42.3%; Emax (5HT2A receptor [3]; [8]): 81.1%
CN1CCC=C(c2c[nH]c3nccc(F)c23)C1 [Example 117, 4-fluoro-3-(1-methyl-1,2,5,6-tetrahydropyridin-3-yl)-1H-pyrrolo[2,3-b]pyridine]	–	–	–	51.1%	110%	EC50 (5HT2A receptor [1]; [19]): 865 nM; Ki (5HT2A receptor [2]; [20]): 1360 nM; EC50 (5HT2A receptor [3]; [21]): 253 nM
Clc1cnc2[nH]cc(C3=CCCNC3)c2c1 [Example 3, 5-chloro-3-(1,2,5,6-tetrahydropyridin-3-yl)-1H-pyrrolo[2,3-b]pyridine]	–	–	–	43.8%	82%	EC50 (5HT2A receptor [1]; [19]): 229 nM; Ki (5HT2A receptor [2]; [20]): 143 nM; EC50 (5HT2A receptor [3]; [21]): 29.4 nM
